Measured values reported in ChEMBL document CHEMBL4814033, “Unique para-aminobenzenesulfonyl oxadiazoles as novel structural potential membrane active antibacterial agents towards drug-resistant methicillin resistant Staphylococcus aureus” (2021).
Values after ≈ are worked out from the molar mass of the structure shown. Active and inactive are the calls of the source. The rule behind the calls is not given here.

What was measured:
[1] = system: Enterococcus faecalis; assay: Antibacterial activity against Enterococcus faecalis by broth microdilution assay; type: functional
[2] = system: Acinetobacter baumannii; assay: Antibacterial activity against Acinetobacter baumannii by broth microdilution assay; type: functional
[3] = system: Staphylococcus aureus; assay: Antibacterial activity against methicillin-resistant Staphylococcus aureus assessed as reduction in bacterial growth measured after 16 passages; type: functional, organism-based
[4] = system: Escherichia coli; assay: Antibacterial activity against Escherichia coli by broth microdilution assay; type: functional
[5] = system: Staphylococcus aureus; assay: Antibacterial activity against Staphylococcus aureus by broth microdilution assay; type: functional
[6] = system: Pseudomonas aeruginosa; assay: Antibacterial activity against Pseudomonas aeruginosa ATCC 27853 by broth microdilution assay; type: functional
[7] = system: Escherichia coli; assay: Antibacterial activity against Escherichia coli ATCC 25922 by broth microdilution assay; type: functional
[8] = system: Staphylococcus aureus; assay: Antibacterial activity against Staphylococcus aureus ATCC 29213 by broth microdilution assay; type: functional
[9] = system: Staphylococcus aureus; assay: Antibacterial activity against methicillin-resistant Staphylococcus aureus by broth microdilution assay; type: functional
[10] = system: Klebsiella pneumoniae; assay: Antibacterial activity against Klebsiella pneumonia by broth microdilution assay; type: functional
[11] = system: Pseudomonas aeruginosa; assay: Antibacterial activity against Pseudomonas aeruginosa by broth microdilution assay; type: functional
[12] = system: Staphylococcus aureus; assay: Antibacterial activity against Staphylococcus aureus ATCC 25923 by broth microdilution assay; type: functional
[13] = system: Staphylococcus aureus; assay: Potency index, ratio of MIC of norfloxacin to MIC of compound for antibacterial activity against methicillin-resistant Staphylococcus aureus by broth microdilution assay; type: functional
[14] = system: Cell membrane; assay: Disruption of inner cell membrane in methicillin-resistant Staphylococcus aureus at 4 times of MIC measured within 14 mins by PI uptake assay; type: subcellular
[15] = system: Calf thymus DNA; assay: Binding affinity to calf thymus DNA assessed as reduction in fluorescence intensity of DNA-AO complex by AO dye based fluorescence analysis; conditions: Bos taurus
[16] = system: Calf thymus DNA; assay: Binding affinity to calf thymus DNA assessed as enhancement in maximum absorption of DNA upto 26.7 uM by UV-vis absorption spectroscopy; type: tissue-based; conditions: Bos taurus, dose microM <=26.7
[17] = system: Calf thymus DNA; assay: Binding affinity to calf thymus DNA assessed as red shift in absorption spectra upto 26.7 uM by UV-vis absorption spectroscopy; type: tissue-based; conditions: Bos taurus, dose microM <=26.7
[18] = system: Staphylococcus aureus; assay: Antibacterial activity against methicillin-resistant Staphylococcus aureus assessed as metabolic inactivation by Alamar blue assay; type: functional, organism-based

Row | SMILES | MIC [1] | MIC [2] | Activity [3] | MIC [4] | MIC [5] | MIC [6] | MIC [7] | MIC [8] | MIC [9] | MIC [10] | MIC [11] | MIC [12] | Ratio [13] | Activity [14] | Activity [15] | Activity [16] | Activity [17] | Activity [18]
1 | CCn1cc(C(=O)O)c(=O)c2cc(F)c(N3CCNCC3)cc21 [NORFLOXACIN] | 8 µg/mL (≈ 25.1 µM) | 8 µg/mL (≈ 25.1 µM) | inactive | 8 µg/mL (≈ 25.1 µM) | 4 µg/mL (≈ 12.5 µM) | 8 µg/mL (≈ 25.1 µM) | 8 µg/mL (≈ 25.1 µM) | 8 µg/mL (≈ 25.1 µM) | 16 µg/mL (≈ 50.1 µM) | 16 µg/mL (≈ 50.1 µM) | 4 µg/mL (≈ 12.5 µM) | 8 µg/mL (≈ 25.1 µM) | – | – | – | – | – | –
2 | CC(=O)Nc1ccc(S(=O)(=O)Cc2nnc(SCCF)o2)cc1 | 64 µg/mL (≈ 178 µM) | 64 µg/mL (≈ 178 µM) | – | 32 µg/mL (≈ 89 µM) | 64 µg/mL (≈ 178 µM) | 128 µg/mL (≈ 356 µM) | 64 µg/mL (≈ 178 µM) | 32 µg/mL (≈ 89 µM) | 2 µg/mL (≈ 5.56 µM) | 32 µg/mL (≈ 89 µM) | 64 µg/mL (≈ 178 µM) | 128 µg/mL (≈ 356 µM) | 8 | – | – | – | – | –
3 | CCOC(=O)CSc1nnc(CS(=O)(=O)c2ccc(NC(C)=O)cc2)o1 | 128 µg/mL (≈ 320 µM) | 32 µg/mL (≈ 80.1 µM) | – | 32 µg/mL (≈ 80.1 µM) | 128 µg/mL (≈ 320 µM) | 128 µg/mL (≈ 320 µM) | 128 µg/mL (≈ 320 µM) | 64 µg/mL (≈ 160 µM) | 16 µg/mL (≈ 40.1 µM) | 64 µg/mL (≈ 160 µM) | 64 µg/mL (≈ 160 µM) | 64 µg/mL (≈ 160 µM) | – | – | – | – | – | –
4 | CCCCCCSc1nnc(CS(=O)(=O)c2ccc(NC(C)=O)cc2)o1 | 128 µg/mL (≈ 322 µM) | 32 µg/mL (≈ 80.5 µM) | Active | 256 µg/mL (≈ 644 µM) | 256 µg/mL (≈ 644 µM) | 256 µg/mL (≈ 644 µM) | 128 µg/mL (≈ 322 µM) | 256 µg/mL (≈ 644 µM) | 1 µg/mL (≈ 2.52 µM) | 8 µg/mL (≈ 20.1 µM) | 256 µg/mL (≈ 644 µM) | 256 µg/mL (≈ 644 µM) | 16 | Active | Active | Active | Active | Active
5 | CC(=O)CSc1nnc(CS(=O)(=O)c2ccc(NC(C)=O)cc2)o1 | 64 µg/mL (≈ 173 µM) | 64 µg/mL (≈ 173 µM) | – | 16 µg/mL (≈ 43.3 µM) | 64 µg/mL (≈ 173 µM) | 128 µg/mL (≈ 346 µM) | 64 µg/mL (≈ 173 µM) | 32 µg/mL (≈ 86.6 µM) | 2 µg/mL (≈ 5.41 µM) | 16 µg/mL (≈ 43.3 µM) | 64 µg/mL (≈ 173 µM) | 128 µg/mL (≈ 346 µM) | – | – | – | – | – | –
6 | CCN(CC)CCSc1nnc(CS(=O)(=O)c2ccc(NC(C)=O)cc2)o1 | 64 µg/mL (≈ 155 µM) | 32 µg/mL (≈ 77.6 µM) | – | 64 µg/mL (≈ 155 µM) | 128 µg/mL (≈ 310 µM) | 64 µg/mL (≈ 155 µM) | 128 µg/mL (≈ 310 µM) | 64 µg/mL (≈ 155 µM) | 32 µg/mL (≈ 77.6 µM) | 128 µg/mL (≈ 310 µM) | 128 µg/mL (≈ 310 µM) | 64 µg/mL (≈ 155 µM) | – | – | – | – | – | –
7 | C#CCSc1nnc(CS(=O)(=O)c2ccc(NC(C)=O)cc2)o1 | 128 µg/mL (≈ 364 µM) | 128 µg/mL (≈ 364 µM) | – | 128 µg/mL (≈ 364 µM) | 64 µg/mL (≈ 182 µM) | 256 µg/mL (≈ 728 µM) | 128 µg/mL (≈ 364 µM) | 32 µg/mL (≈ 91.1 µM) | 8 µg/mL (≈ 22.8 µM) | 256 µg/mL (≈ 728 µM) | 64 µg/mL (≈ 182 µM) | 64 µg/mL (≈ 182 µM) | – | – | – | – | – | –
8 | CC(=O)Nc1ccc(S(=O)(=O)Cc2nnc(SCc3ccc(F)cc3F)o2)cc1 | 128 µg/mL (≈ 291 µM) | 64 µg/mL (≈ 146 µM) | – | 8 µg/mL (≈ 18.2 µM) | 64 µg/mL (≈ 146 µM) | 64 µg/mL (≈ 146 µM) | 128 µg/mL (≈ 291 µM) | 32 µg/mL (≈ 72.8 µM) | 16 µg/mL (≈ 36.4 µM) | 128 µg/mL (≈ 291 µM) | 64 µg/mL (≈ 146 µM) | 64 µg/mL (≈ 146 µM) | – | – | – | – | – | –
9 | CC(=O)Nc1ccc(S(=O)(=O)Cc2nnc(SCCO)o2)cc1 | 32 µg/mL (≈ 89.5 µM) | 64 µg/mL (≈ 179 µM) | – | 32 µg/mL (≈ 89.5 µM) | 64 µg/mL (≈ 179 µM) | 128 µg/mL (≈ 358 µM) | 64 µg/mL (≈ 179 µM) | 32 µg/mL (≈ 89.5 µM) | 32 µg/mL (≈ 89.5 µM) | 16 µg/mL (≈ 44.8 µM) | 32 µg/mL (≈ 89.5 µM) | 32 µg/mL (≈ 89.5 µM) | – | – | – | – | – | –
10 | C=CCSc1nnc(CS(=O)(=O)c2ccc(NC(C)=O)cc2)o1 | 64 µg/mL (≈ 181 µM) | 256 µg/mL (≈ 724 µM) | – | 256 µg/mL (≈ 724 µM) | 256 µg/mL (≈ 724 µM) | 256 µg/mL (≈ 724 µM) | 256 µg/mL (≈ 724 µM) | 256 µg/mL (≈ 724 µM) | 256 µg/mL (≈ 724 µM) | 256 µg/mL (≈ 724 µM) | 256 µg/mL (≈ 724 µM) | 256 µg/mL (≈ 724 µM) | – | – | – | – | – | –
11 | CC(=O)Nc1ccc(S(=O)(=O)Cc2nnc(S)o2)cc1 | 128 µg/mL (≈ 408 µM) | 256 µg/mL (≈ 817 µM) | – | 256 µg/mL (≈ 817 µM) | 256 µg/mL (≈ 817 µM) | 256 µg/mL (≈ 817 µM) | 256 µg/mL (≈ 817 µM) | 256 µg/mL (≈ 817 µM) | 256 µg/mL (≈ 817 µM) | 256 µg/mL (≈ 817 µM) | 256 µg/mL (≈ 817 µM) | 256 µg/mL (≈ 817 µM) | – | – | – | – | – | –
12 | CC(=O)Nc1ccc(S(=O)(=O)Cc2nnc(SCC#N)o2)cc1 | 256 µg/mL (≈ 726 µM) | 128 µg/mL (≈ 363 µM) | – | 256 µg/mL (≈ 726 µM) | 128 µg/mL (≈ 363 µM) | 256 µg/mL (≈ 726 µM) | 256 µg/mL (≈ 726 µM) | 256 µg/mL (≈ 726 µM) | 256 µg/mL (≈ 726 µM) | 256 µg/mL (≈ 726 µM) | 256 µg/mL (≈ 726 µM) | 256 µg/mL (≈ 726 µM) | – | – | – | – | – | –
13 | CCCCSc1nnc(CS(=O)(=O)c2ccc(NC(C)=O)cc2)o1 | 256 µg/mL (≈ 693 µM) | 256 µg/mL (≈ 693 µM) | – | 128 µg/mL (≈ 346 µM) | 128 µg/mL (≈ 346 µM) | 256 µg/mL (≈ 693 µM) | 256 µg/mL (≈ 693 µM) | 256 µg/mL (≈ 693 µM) | 256 µg/mL (≈ 693 µM) | 256 µg/mL (≈ 693 µM) | 256 µg/mL (≈ 693 µM) | 256 µg/mL (≈ 693 µM) | – | – | – | – | – | –
14 | CC(=O)Nc1ccc(S(=O)(=O)Cc2nnc(SCc3ccc(Cl)cc3Cl)o2)cc1 | 128 µg/mL (≈ 271 µM) | 32 µg/mL (≈ 67.7 µM) | – | 16 µg/mL (≈ 33.9 µM) | 64 µg/mL (≈ 135 µM) | 256 µg/mL (≈ 542 µM) | 64 µg/mL (≈ 135 µM) | 32 µg/mL (≈ 67.7 µM) | 2 µg/mL (≈ 4.23 µM) | 16 µg/mL (≈ 33.9 µM) | 64 µg/mL (≈ 135 µM) | 256 µg/mL (≈ 542 µM) | – | – | – | – | – | –
15 | CC(=O)Nc1ccc(S(=O)(=O)Cc2nnc(SCC3CC3)o2)cc1 | 64 µg/mL (≈ 174 µM) | 64 µg/mL (≈ 174 µM) | – | 8 µg/mL (≈ 21.8 µM) | 128 µg/mL (≈ 348 µM) | 64 µg/mL (≈ 174 µM) | 128 µg/mL (≈ 348 µM) | 64 µg/mL (≈ 174 µM) | 8 µg/mL (≈ 21.8 µM) | 128 µg/mL (≈ 348 µM) | 64 µg/mL (≈ 174 µM) | 64 µg/mL (≈ 174 µM) | – | – | – | – | – | –
16 | CC(=O)Nc1ccc(S(=O)(=O)Cc2nnc(SCC(=O)O)o2)cc1 | 64 µg/mL (≈ 172 µM) | 32 µg/mL (≈ 86.2 µM) | – | 32 µg/mL (≈ 86.2 µM) | 128 µg/mL (≈ 345 µM) | 128 µg/mL (≈ 345 µM) | 128 µg/mL (≈ 345 µM) | 64 µg/mL (≈ 172 µM) | 32 µg/mL (≈ 86.2 µM) | 64 µg/mL (≈ 172 µM) | 128 µg/mL (≈ 345 µM) | 64 µg/mL (≈ 172 µM) | – | – | – | – | – | –
17 | CCCCCCCCCCCCSc1nnc(CS(=O)(=O)c2ccc(NC(C)=O)cc2)o1 | 128 µg/mL (≈ 266 µM) | 256 µg/mL (≈ 531 µM) | – | 256 µg/mL (≈ 531 µM) | 256 µg/mL (≈ 531 µM) | 256 µg/mL (≈ 531 µM) | 256 µg/mL (≈ 531 µM) | 256 µg/mL (≈ 531 µM) | 128 µg/mL (≈ 266 µM) | 64 µg/mL (≈ 133 µM) | 256 µg/mL (≈ 531 µM) | 256 µg/mL (≈ 531 µM) | – | – | – | – | – | –
